Data as given in patent US20190136321A1, “USE OF TRANSLATIONAL PROFILING TO IDENTIFY TARGET MOLECULES FOR THERAPEUTIC TREATMENT” (The Regents of The University of California, priority 2013, published 2019).

Test system: PC3 cells
Experiment: Ribosome profiling and RNA-seq of PC3 cells (translational efficiency, mRNA abundance);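 further: mRNA is RNA-seq average read density per codon over the coding sequence, translational efficiency is ribosome footprint over RNA-seq density, scaled so the median gene equals 1.0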
Assay type: cell-based, human
Description: Given the critical role for mTOR in prostate cancer, PC3 human prostate cancer cells, in which mTOR is constitutively hyperactivated, were used to delineate translationally controlled gene expression networks upon complete or partial mTOR inhibition. Ribosome profiling was optimized to assess quantitatively ribosome occupancy genome-wide in cancer cells.
Cells were subsequently treated with cycloheximide (100 μg ml^−1) and detergent lysis was performed in the dish. The lysate was treated with DNase and clarified, and a sample was taken for RNA-seq analysis. Lysates were subjected to ribosome footprinting by nuclease treatment. Ribosome-protected fragments were purified, and deep sequencing libraries were generated from these fragments, as well as from poly(A) mRNA purified from non-nuclease-treated lysates.
Ribosome footprint and RNA-seq sequencing reads were aligned against a library of transcripts from the UCSC Known Genes database GRCh37/hg19. The first 25 nucleotides of each read were aligned using Bowtie and this initial alignment was then extended to encompass the full fragment-derived portion of the sequencing read while excluding the linker sequence. Read density profiles were then constructed for the canonical transcript of each gene, using only reads with 0 or 1 total mismatches between the read sequence and the reference sequence, comprised of the transcript fragment followed by the linker sequence. Footprint reads were assigned to an A site nucleotide at position +15 to +17 of the alignment, based on the total fragment length; mRNA reads were assigned to the first nucleotide of the alignment. The average read density per codon was then computed for the coding sequence of each transcript, excluding the first 15 and last 5 codons, which can display atypical ribosome accumulation.
Average read density was used as a measure of mRNA abundance (RNA-seq reads) and of protein synthesis (ribosome profiling reads). For most analyses, genes were filtered to require at least 256 reads in the relevant RNA-seq samples. Translational efficiency was computed as the ratio of ribosome footprint read density to RNA-seq read density, scaled to normalize the translational efficiency of the median gene to 1.0 after excluding regulated genes (log2 fold-change ±1.5 after normalizing for the all-gene median). Changes in protein synthesis, mRNA abundance and translational efficiency were similarly computed as the ratio of read densities between different samples, normalized to give the median gene a ratio of 1.0. This normalization corrects for differences in the absolute number of sequencing reads obtained for different libraries.

CC(C)n1nc(-c2cc3cc(O)ccc3[nH]2)c2c(N)ncnc21 [PP242]
TrlEff, ACD (PP242 2.5 μM, 3-hour treatment): −1.02
TrlEff, C17orf28 (PP242 2.5 μM, 3-hour treatment): −0.20
TrlEff, CCNA1 (PP242 2.5 μM, 3-hour treatment): 0.66
TrlEff, DDX51 (PP242 2.5 μM, 3-hour treatment): −0.51
TrlEff, DGCR2 (PP242 2.5 μM, 3-hour treatment): 0.02
TrlEff, EEF1A1 (PP242 2.5 μM, 3-hour treatment): −3.53
TrlEff, GTPBP3 (PP242 2.5 μM, 3-hour treatment): −0.83
TrlEff, MAPK6 (PP242 2.5 μM, 3-hour treatment): −0.29
TrlEff, MAPKAPK2 (PP242 2.5 μM, 3-hour treatment): 0.92
TrlEff, NFATC21P (PP242 2.5 μM, 3-hour treatment): 0.35
TrlEff, NR2F1 (PP242 2.5 μM, 3-hour treatment): −0.09
TrlEff, PRKD3 (PP242 2.5 μM, 3-hour treatment): 0.68
TrlEff, RBPJ (PP242 2.5 μM, 3-hour treatment): −0.03
TrlEff, RPL28 (PP242 2.5 μM, 3-hour treatment): −3.48
TrlEff, RPL39 (PP242 2.5 μM, 3-hour treatment): −2.53
TrlEff, RPS20 (PP242 2.5 μM, 3-hour treatment): −2.78
TrlEff, RPS27 (PP242 2.5 μM, 3-hour treatment): −3.35
TrlEff, SDCCAG10 (PP242 2.5 μM, 3-hour treatment): 0.23
TrlEff, UBTD2 (PP242 2.5 μM, 3-hour treatment): 0.27
TrlEff, UCHL5 (PP242 2.5 μM, 3-hour treatment): 0.40
TrlEff, VHL (PP242 2.5 μM, 3-hour treatment): 0.52
mRNA, ACD (PP242 2.5 μM, 3-hour treatment): 0.20
mRNA, ARID5B (PP242 2.5 μM, 3-hour treatment): 1.93 log^2 fold change
mRNA, BCL6 (PP242 2.5 μM, 3-hour treatment): 1.59 log^2 fold change
mRNA, BRIX1 (PP242 2.5 μM, 3-hour treatment): −1.51 log^2 fold change
mRNA, C17orf28 (PP242 2.5 μM, 3-hour treatment): 0.21
mRNA, CCNA1 (PP242 2.5 μM, 3-hour treatment): −0.33
mRNA, CTGF (PP242 2.5 μM, 3-hour treatment): 1.80 log^2 fold change
mRNA, CYR61 (PP242 2.5 μM, 3-hour treatment): 1.47 log^2 fold change
mRNA, DDX51 (PP242 2.5 μM, 3-hour treatment): 0.17
mRNA, DGCR2 (PP242 2.5 μM, 3-hour treatment): 0.05
mRNA, EEF1A1 (PP242 2.5 μM, 3-hour treatment): 0.29
mRNA, FGFBP1 (PP242 2.5 μM, 3-hour treatment): −1.75 log^2 fold change
mRNA, FOXA1 (PP242 2.5 μM, 3-hour treatment): 1.45 log^2 fold change
mRNA, GDF15 (PP242 2.5 μM, 3-hour treatment): 3.02 log^2 fold change
mRNA, GTPBP3 (PP242 2.5 μM, 3-hour treatment): 0.15
mRNA, HBP1 (PP242 2.5 μM, 3-hour treatment): 1.88 log^2 fold change
mRNA, KLF6 (PP242 2.5 μM, 3-hour treatment): 1.75 log^2 fold change
mRNA, MAPK6 (PP242 2.5 μM, 3-hour treatment): 0.10
mRNA, MAPKAPK2 (PP242 2.5 μM, 3-hour treatment): −0.22
mRNA, MT2A (PP242 2.5 μM, 3-hour treatment): 1.47 log^2 fold change
mRNA, NFATC21P (PP242 2.5 μM, 3-hour treatment): 0.08
mRNA, NR2F1 (PP242 2.5 μM, 3-hour treatment): 0.87
mRNA, PLAU (PP242 2.5 μM, 3-hour treatment): 2.04 log^2 fold change
mRNA, PRKD3 (PP242 2.5 μM, 3-hour treatment): −0.46
mRNA, RBPJ (PP242 2.5 μM, 3-hour treatment): 0.17
mRNA, RND3 (PP242 2.5 μM, 3-hour treatment): 1.78 log^2 fold change
mRNA, RPL28 (PP242 2.5 μM, 3-hour treatment): 0.55
mRNA, RPL39 (PP242 2.5 μM, 3-hour treatment): −0.42
mRNA, RPS20 (PP242 2.5 μM, 3-hour treatment): −0.10
mRNA, RPS27 (PP242 2.5 μM, 3-hour treatment): 0.06
mRNA, SDCCAG10 (PP242 2.5 μM, 3-hour treatment): −0.37
mRNA, SOX4 (PP242 2.5 μM, 3-hour treatment): 1.51 log^2 fold change
mRNA, UBTD2 (PP242 2.5 μM, 3-hour treatment): 0.25
mRNA, UCHL5 (PP242 2.5 μM, 3-hour treatment): −0.51
mRNA, VHL (PP242 2.5 μM, 3-hour treatment): 0.43
TrlEff (gene ACTG1): −1.40
mRNA (gene ACTG1): 0.28
mRNA (gene AGRN): 0.50
mRNA (gene ALKBH7): 0.51
mRNA (gene AP2A1): 0.42
mRNA (gene ARD1A): 0.03
mRNA (gene ATP5G2): 0.17
mRNA (gene C21orf66): −0.31
mRNA (gene CCNI): 0.24
mRNA (gene CD44): 0.43
mRNA (gene CIRBP): 0.54
mRNA (gene CLPTM1): 0.41
mRNA (gene COL6A2): 0.57
TrlEff (gene CRTAP): −2.50
mRNA (gene CRTAP): 0.33
mRNA (gene ECSIT): 0.26
mRNA (gene EEF1A2): 0.40
TrlEff (gene EEF1B2): −1.70
mRNA (gene EEF1D): 0.35
mRNA (gene EEF1G): 0.15
TrlEff (gene EEF2): −3.60
mRNA (gene EIF3H): 0.09
mRNA (gene EIF3L): 0.21
mRNA (gene EIF4B): 0.61
TrlEff (gene EVPL): −0.79
mRNA (gene EVPL): 0.38
mRNA (gene FAM83H): 0.33
mRNA (gene FAM128B): 0.43
mRNA (gene FASN): 0.30
TrlEff (gene GAPDH): −1.90
mRNA (gene GLTSCR2): 0.70
mRNA (gene GNB2L1): 0.27
mRNA (gene HNRNPA1): 0.27
mRNA (gene HSPA8): −0.40
mRNA (gene IMPDH2): 0.21
